Consider two molecules from US20250179439A1, “PRODUCTION METHOD FOR ORGANOID” (KEIO UNIVERSITY, priority 2022, published 2025).

For the assay, the system named is CRC organoids. The experiment in a line: Drug screening assay (HTS) of GFP-labelled organoids in suspension culture, 384-well. The format is cell-based, human. From the text:
In the present study, a total of 23 organoid lineages were subjected to screening. Prior to screening, the organoids were labeled with a green fluorescent protein (GFP) using PB-CMV-MCS-EF1α-GFP-Puro PiggyBac (PB513B-1, available from System Biosciences, LLC.) and Super PiggyBac transposase (PB210-20, available from System Biosciences, LLC.) vectors.
The organoids were dissociated with TrypLE Express (available from Thermo Fisher Scientific, Inc.) and filtered using a cell strainer (pore size: 20 μm, available from Sysmex Corporation). Using a cell sorter (SH800, available from Sony Corporation), 800 to 1,500 cells were sorted into each well of a 384-well plate.
The organoids were treated with a test compound 24 hours or 96 hours after seeding. The organoids were grown for 6 to 8 days, and the colony area was measured based on the fluorescence of GFP using an IN Cell Analyzer 6000 confocal imaging system (available from GE Healthcare Life Sciences). In addition, bright field imaging and luminescence-based ATP measurement were carried out using Cell3iMager duos (available from SCREEN Holdings Co., Ltd.) and CellTiter-Glo cell viability assay (available from Promega Corporation).
The bright field image was analyzed using software integrated into the Cell3iMager. […]

Residues, ends and D or L forms follow the SMILES beside them. *: point of attachment. Cbz = O=C(OCc1ccccc1)*

Consider (+)-JQ1, for which the “growth of organoids, CRC versus normal colon organoids (MANOVA of HTS drug responses)” value (CRC organoids compared with normal colon organoids) is reported as “suppressed the growth of organoids in a cancer-specific manner”.

In the case of `CC(C)C[C@@H](C=O)NC(=O)[C@H](CC(C)C)NC(=O)[C@H](CC(C)C)NC(=O)OCc1ccccc1` [MG-132] (Cbz-Leu-Leu-Leu-aldehyde), the cell death (maximum concentration of 1 μM, all screening plates (normal colon and CRC organoids), used to estimate the background signal) was 100%.
